Measurements taken from PubChem BioAssay AID248 (DTP/NCI, 2004).
“And” between values parts separate entries of the source, which are not always exact repeats. Identical values can stand only once. Toxic doses and inconclusive results are not listed. No stated cut-off is given here; in the data, active means T/C of 150% or more; inactive means T/C below 125%.

System: L1210 leukemia ip in BDF1 mice, survival T/C
Assay: NCI In Vivo Anticancer Drug Screen. Data for tumor model L1210 Leukemia (intraperitoneal) in B6D2F1 (BDF1) mice
Conditions: endpoint: mean survival time, higher = longer survival
In short: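 Tumor was transplanted into mice, which were then dosed with test compound or vehicle alone. Survival was recorded for each group, and the treated figure was expressed relative to the control figure.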

[1] = dose: 100.0 mg/kg/injection, schedule: Q04DX003 (ip), vehicle: Klucel (hydroxypropylcellulose) (HPC)
[2] = dose: 200.0 mg/kg/injection, schedule: Q04DX003 (ip), vehicle: Klucel (hydroxypropylcellulose) (HPC)
[3] = dose: 400.0 mg/kg/injection, schedule: Q04DX003 (ip), vehicle: Klucel (hydroxypropylcellulose) (HPC)
[4] = dose: 100.0 mg/kg/injection, schedule: Q01DX001 (ip), vehicle: saline
[5] = dose: 200.0 mg/kg/injection, schedule: Q01DX001 (ip), vehicle: saline
[6] = dose: 400.0 mg/kg/injection, schedule: Q01DX001 (ip), vehicle: saline
[7] = dose: 50.0 mg/kg/injection, schedule: Q01DX009 (ip), vehicle: saline
[8] = dose: 100.0 mg/kg/injection, schedule: Q01DX009 (ip), vehicle: saline
[9] = dose: 100.0 mg/kg/injection, schedule: Q04DX003 (ip), vehicle: saline
[10] = dose: 200.0 mg/kg/injection, schedule: Q04DX003 (ip), vehicle: saline
[11] = dose: 200.0 mg/kg/injection, schedule: Q01DX009 (ip), vehicle: saline with Tween-80
[12] = dose: 100.0 mg/kg/injection, schedule: Q01DX009 (ip), vehicle: Klucel (hydroxypropylcellulose) (HPC)
[13] = dose: 200.0 mg/kg/injection, schedule: Q01DX009 (ip), vehicle: Klucel (hydroxypropylcellulose) (HPC)
[14] = dose: 400.0 mg/kg/injection, schedule: Q01DX009 (ip), vehicle: Klucel (hydroxypropylcellulose) (HPC)
[15] = dose: 100.0 mg/kg/injection, schedule: Q04DX002 (ip), vehicle: Klucel (hydroxypropylcellulose) (HPC)
[16] = dose: 200.0 mg/kg/injection, schedule: Q04DX002 (ip), vehicle: Klucel (hydroxypropylcellulose) (HPC)
[17] = dose: 400.0 mg/kg/injection, schedule: Q04DX002 (ip), vehicle: Klucel (hydroxypropylcellulose) (HPC)

Measured: T/C

OCC1OC(n2ccc3c2ncn2nnnc32)C(O)C1O (stereo not drawn)
inactive: dose: 12.5 mg/kg/injection, schedule: Q01DX009 (ip), vehicle: saline 91 % of control | dose: 12.5 mg/kg/injection, schedule: Q04DX003 (ip), vehicle: saline 102 % of control | dose: 25.0 mg/kg/injection, schedule: Q01DX009 (ip), vehicle: saline 102 % of control | dose: 25.0 mg/kg/injection, schedule: Q04DX003 (ip), vehicle: saline 107 % of control | dose: 50.0 mg/kg/injection, schedule: Q04DX003 (ip), vehicle: saline 105 % of control

CC(=O)NCCCOc1ccc([N+](=O)[O-])cc1
inactive: [1] 101 % of control | [2] 91 % of control | [3] 92 % of control

COC1(c2ccccc2)OC(Cc2ccccc2)=NC1(C)C (stereo not drawn)
inactive: [1] 94 % of control | [2] 94 % of control | [3] 94 % of control

O=C1C(=O)c2ccccc2C(O)=C1Nc1ccc(Cl)cc1
inactive: [4] 94 % of control | [5] 93 % of control | [6] 93 % of control

c1cc2c(c3c1CCCC3)CCCC2
inactive: dose: 50.0 mg/kg/injection, schedule: Q01DX001 (ip), vehicle: carboxymethylcellulose (CMC) 92 % of control | [7] 101 % of control | dose: 100.0 mg/kg/injection, schedule: Q01DX001 (ip), vehicle: carboxymethylcellulose (CMC) 97 % of control | [8] 94 % of control | [9] 91 % of control | dose: 200.0 mg/kg/injection, schedule: Q01DX001 (ip), vehicle: carboxymethylcellulose (CMC) 91 % of control | [10] 101 % of control | dose: 400.0 mg/kg/injection, schedule: Q01DX001 (ip), vehicle: carboxymethylcellulose (CMC) 94 % of control

Cc1cc2nc3c(nc2cc1C)-c1ccccc1C3=O
inactive: dose: 100.0 mg/kg/injection, schedule: Q01DX009 (ip), vehicle: saline with Tween-80 117 % of control | [11] 101 % of control | dose: 400.0 mg/kg/injection, schedule: Q01DX009 (ip), vehicle: saline with Tween-80 97 % of control

CC1(C)c2ccccc2-c2nc3ccccc3nc2C1O (stereo not drawn)
inactive: dose: 100.0 mg/kg/injection, schedule: Q01DX001 (ip), vehicle: Klucel (hydroxypropylcellulose) (HPC) 94 % of control | dose: 200.0 mg/kg/injection, schedule: Q01DX001 (ip), vehicle: Klucel (hydroxypropylcellulose) (HPC) 97 % of control | dose: 400.0 mg/kg/injection, schedule: Q01DX001 (ip), vehicle: Klucel (hydroxypropylcellulose) (HPC) 103 % of control

COc1ccccc1C1CCCCC1=O (stereo not drawn)
inactive: dose: 100.0 mg/kg/injection, schedule: Q01DX001 (ip), vehicle: other 105 % of control | dose: 200.0 mg/kg/injection, schedule: Q01DX001 (ip), vehicle: other 96 % of control | dose: 400.0 mg/kg/injection, schedule: Q01DX001 (ip), vehicle: other 89 % of control

CC(=O)c1cc(C)c(C)s1
inactive: dose: 12.5 mg/kg/injection, schedule: Q01DX009 (ip), vehicle: saline with Tween-80 107 % of control | dose: 25.0 mg/kg/injection, schedule: Q01DX009 (ip), vehicle: saline with Tween-80 110 % of control | dose: 50.0 mg/kg/injection, schedule: Q01DX009 (ip), vehicle: saline with Tween-80 100 % of control | dose: 100.0 mg/kg/injection, schedule: Q04DX003 (ip), vehicle: saline with Tween-80 90 % of control | [11] 86 % of control | dose: 200.0 mg/kg/injection, schedule: Q04DX003 (ip), vehicle: saline with Tween-80 96 % of control

NC(=NC(=O)c1ccccc1)N[N+](=O)[O-]
inactive: dose: 100.0 mg/kg/injection, schedule: Q04DX002 (ip), vehicle: gum acacia 104 % of control | dose: 200.0 mg/kg/injection, schedule: Q04DX002 (ip), vehicle: gum acacia 107 % of control | dose: 400.0 mg/kg/injection, schedule: Q04DX002 (ip), vehicle: gum acacia 104 % of control

Cc1cc(C)cc(OCC2C(COC(=O)c3cccc(Cl)c3)c3ccccc3N2C)c1 (stereo not drawn)
inactive: [12] 89 % of control | [13] 94 % of control

CCOC(=S)c1ccc(S(=O)(=O)Nc2ccccc2)cc1
inactive: dose: 100.0 mg/kg/injection, schedule: Q01DX001 (ip), vehicle: saline with Tween-80 100 % of control | dose: 200.0 mg/kg/injection, schedule: Q01DX001 (ip), vehicle: saline with Tween-80 97 % of control | dose: 400.0 mg/kg/injection, schedule: Q01DX001 (ip), vehicle: saline with Tween-80 95 % of control

CN(C)CCCNc1nc(Cl)nc(Cl)n1
inactive: [7] 96 % of control | [8] 92 % of control | dose: 200.0 mg/kg/injection, schedule: Q01DX009 (ip), vehicle: saline 96 % of control

O=C(O)c1ccc(SSc2ccc(C(=O)O)cn2)nc1
inactive: [9] 102 % of control | [10] 101 % of control | dose: 400.0 mg/kg/injection, schedule: Q04DX003 (ip), vehicle: saline 104 % of control

Cc1cc(=O)[nH]c(/N=C(\N)Nc2ccc(Cl)cc2)n1
inactive: dose: 100.0 mg/kg/injection, schedule: Q04DX002 (ip), vehicle: saline 93 % of control | dose: 200.0 mg/kg/injection, schedule: Q04DX002 (ip), vehicle: saline 99 % of control | dose: 400.0 mg/kg/injection, schedule: Q04DX002 (ip), vehicle: saline 96 % of control

CCCCCCCCCCCCc1c2ccccc2cc2ccccc12
inactive: [4] 97 % of control | [5] 98 % of control | [6] 92 % of control

NC1c2ccccc2CC1C(=O)O (stereo not drawn)
inactive: [4] 95 % of control | [5] 97 % of control

ClC1(Cl)C2CCC3C(CCC21)C3(Cl)Cl (stereo not drawn)
inactive: [12] 100 % of control | [13] 107 % of control | [14] 107 % of control

O=[N+]([O-])c1cc(Cl)c(Cl)c([N+](=O)[O-])c1O
inactive: dose: 25.0 mg/kg/injection, schedule: Q01DX009 (ip), vehicle: acetone 92 % of control | dose: 50.0 mg/kg/injection, schedule: Q01DX009 (ip), vehicle: acetone 97 % of control | dose: 50.0 mg/kg/injection, schedule: Q04DX003 (ip), vehicle: acetone 95 % of control | [4] 95 % of control | dose: 100.0 mg/kg/injection, schedule: Q01DX009 (ip), vehicle: acetone 95 % of control | dose: 100.0 mg/kg/injection, schedule: Q04DX003 (ip), vehicle: acetone 89 % of control | dose: 150.0 mg/kg/injection, schedule: Q01DX009 (ip), vehicle: acetone 100 % of control | [5] 93 % of control

O=S(=O)(c1ccc(Cl)cc1)C(Cl)(Cl)Cl
inactive: [12] 93 % of control | [13] 97 % of control | [14] 96 % of control

CCN(CC)C(=S)N1CCCCC1
inactive: [12] 99 % of control | [15] 100 % of control | [13] 105 % of control | [16] 90 % of control | [14] 108 % of control | [17] 110 % of control

Clc1ccc2c(c1)C1c3ccccc3C2C2c3ccccc3C1c1ccccc12 (stereo not drawn)
inactive: dose: 50.0 mg/kg/injection, schedule: Q04DX002 (ip), vehicle: Klucel (hydroxypropylcellulose) (HPC) 117 % of control | [15] 102 % of control | [16] 95 % of control and 88 % of control | [17] 88 % of control
